From a melting point compilation (Tetko et al.; mined from patent text by program, amines drawn as free bases though some values may be those of a salt)

Work on `CN(C)Cc1cc(C(C)(C)c2cc(CN(C)C)c(O)c(CN(C)C)c2)cc(CN(C)C)c1O` yielded a melting point of 88 to 90 °C. With `CS(=O)(=O)c1ccc(-c2cc(C(=O)c3ccccc3)sc2N2CCOCC2)cc1` the melting point was 173 °C. In the case of `CC(=O)Nc1nc(CN2CCN(C(c3ccccc3)c3ccccc3)CC2)c(Cl)s1`, the melting point is reported as 227 to 230 °C. `CCC[C@H]1CC[C@H](C(=O)Oc2ccc(-c3ccc(F)cc3)cc2)CC1` gave a melting point of 96 °C. Work on `CSc1cc(OCCC[Si](C)(C)C)c(Cl)cc1NC=NC#N` yielded a melting point of 94 to 96 °C. With `CCCNC(=O)c1cccc(C2(c3ccc(OC(F)F)cc3)N=C(N)N(C)C2=O)c1` (centres undefined) the melting point was 93 to 96 °C. Work on `CC(C)c1cc(-c2ccc(F)cc2)nc(N(C)S(C)(=O)=O)n1` yielded a melting point of 138 to 139 °C. For `CCCN(CCC)C(N)=O`, the melting point was 69 °C. `Cc1cc(C(=O)N(C)C)ccc1-c1ccc(C(=O)Nc2ccc(Br)c(N3CCN(C)CC3)c2)cc1` gave a melting point of 227 to 228 °C. For `Cc1cc(OCCCCOc2ccc([N+](=O)[O-])c(C)c2)ccc1[N+](=O)[O-]`, the melting point was 108 to 110 °C. Compound `O=C(O)CCCc1cc2nc(C(F)(F)F)ccc2n1S(=O)(=O)c1ccc2c(c1)OCCO2` has a melting point of 158 °C. In the case of `COc1ccc(-c2cc(C(=O)O)n(C)n2)cc1`, the melting point is reported as 190 to 193 °C. Work on `Cc1ccc2nc(NC(=O)c3ccc(C(C)(C)CCc4nnn[nH]4)cc3)cn2c1` yielded a melting point of 245 to 246 °C. With `c1cc2nnnn2cc1C1CO1` (centres undefined) the melting point was 108 to 110 °C. Compound `O=C(COC(=O)c1ccccc1Nc1ccnc2c(C(F)(F)F)cccc12)OC1CCN(Cc2ccccc2)CC1` has a melting point of 99 to 100 °C. For `O=C1c2c(Cl)cccc2-n2cnc(/C=C\Cl)c2[C@@H]2CCN12`, the melting point was 189 to 191 °C. Work on `CCCCCCCCCCCCOC(=O)C(N)CCCNC(=N)N` (centres undefined) yielded a melting point of 125 to 130 °C. With `CC(C)Oc1ccc(Nc2ccc(N=C=O)cc2C(F)(F)F)cc1C(F)(F)F` the melting point was 102 to 105 °C. For `O=C1CC(=Cc2c[nH]c3ccccc23)C(=O)N1Cc1cc(C(F)(F)F)cc(C(F)(F)F)c1`, the melting point was 68 to 69 °C. In the case of `Brc1ccc(C2(c3ccccc3)OCCO2)cc1`, the melting point is reported as 54 to 56 °C. With `CCCc1c(OCCCS(=O)c2nc3ccc(C(=O)O)cc3[nH]2)ccc(C(C)=O)c1O` (centres undefined) the melting point was 173 to 175 °C. `Nc1ccc2ccc(Oc3ccc(F)cc3)nc2n1` showed a melting point of 210 °C. Work on `COc1ccc2nc(-c3cc(C(F)(F)F)nn3-c3ccc(S(N)(=O)=O)cc3)sc2c1` yielded a melting point of 236 to 237 °C. With `Cc1oc(-c2ccccc2)nc1CCOc1ccc(C=O)c2ccccc12` the melting point was 130 to 133 °C. `Brc1ccc2c(c1)OCCN2C1CCOCC1` showed a melting point of 66.2 °C. Compound `COC(=O)C(Oc1cc(OCc2ccsc2)cc(F)c1C#N)c1ccccc1Cl` (racemic) has a melting point of 143 to 144 °C. With `Nc1cccc(C(CC2=NCCN2)c2ccccn2)c1` (centres undefined) the melting point was 154 to 155 °C. For `CC1(C)CC(=O)C2=C(C1)NC1=C(C(=O)CC(C)(C)C1)C2c1cccc(-n2ccnc2)c1`, the melting point was 286 to 288 °C. `CCCC[C@]1(CC)CS(=O)(=O)c2cc(O)c(OC)cc2[C@@H](c2ccccc2)N1` gave a melting point of 165 to 166 °C. `O=C(c1cccc2nc3n(c12)CCCN3c1ccc(Cl)cc1Cl)N1CC(O)C1` showed a melting point of 257 to 258 °C. In the case of `CCOC(=O)CSc1cccc(-c2nc(=O)c3ccccc3s2)n1`, the melting point is reported as 124 to 125 °C. `CC1Cc2c(-c3ccccc3)[nH]c(-c3ccccc3)c2CC1C` (centres undefined) showed a melting point of 133 °C. `CC(=O)Nc1nc2c(Oc3cc(-c4ccc(C(F)(F)F)cc4Cl)ncn3)cccc2s1` gave a melting point of 263 to 264 °C. In the case of `O=C(c1ccc(-n2ccnc2)cc1)N1Cc2cccn2Cc2ccccc21`, the melting point is reported as 171 to 172 °C. For `COC(=O)c1ccc(CCc2cc3cc(C#N)ccc3o2)cc1`, the melting point was 114 to 115 °C. Compound `O=C(O)Cc1ccc(OCc2ccccc2)cc1[N+](=O)[O-]` has a melting point of 145 to 152 °C. With `CON=C(C(C)=NN=Cc1ccccc1C(=NOC)C1=NOCCO1)c1ccccc1` the melting point was 136 °C. `COc1ccc(CN2C=CC=C3C2=Nc2cc(C)ccc2S(=O)(=O)N3C)cc1` gave a melting point of 135 to 136 °C. `O=Cc1ccc(F)c(F)c1` gave a melting point of 95 to 96 °C. Work on `O=C1OCc2c(-c3noc(C4CC4)n3)ncn2-c2ccccc21` yielded a melting point of 206 to 209 °C. With `CS(=O)(=O)Nc1ccc(C#N)cc1Nc1ccc(F)cc1F` the melting point was 167 to 169 °C. `CCC(CC)N(O)C(=O)NCCCCCCCCNC(=O)N(O)C(CC)CC` showed a melting point of 89 to 90 °C. `O=c1c(N2CCNCC2)nccn1CCOc1cccc([N+](=O)[O-])c1` gave a melting point of 171 °C. `O=c1ccc2ccc(CO)cc2o1` gave a melting point of 116 to 117 °C. `COc1cccc2c(=O)c(C(N)=O)coc12` showed a melting point of 229 to 231 °C. Work on `CCCCCC(=O)c1cccc(OCc2ccc3ccccc3c2)c1` yielded a melting point of 52 to 55 °C. For `C=CCN(CC)c1ccc2[nH]c3cnc(C(=O)OCC)cc3c2c1`, the melting point was 190 to 192 °C. In the case of `Cc1cccnc1-c1ccc2ccnc(N)c2n1`, the melting point is reported as 170 to 171 °C. Compound `COc1ccc(C(=O)CC(=O)C(C)(C)C)cc1C(=O)CC(=O)C(C)(C)C` has a melting point of 69.4 to 70.8 °C. `COc1c(O)cccc1C(=O)C1CCN(CCc2ccc(F)cc2)CC1` showed a melting point of 100 to 101 °C. `COC(=O)C1C(OC)=CCc2ccc(OC)cc21` (centres undefined) gave a melting point of 90 to 91 °C. In the case of `COc1ccc(C2NCCS2)cc1` (centres undefined), the melting point is reported as 94 to 95 °C. `O=C(O)CCCCCN1C(=O)c2ccc([N+](=O)[O-])cc2C1=O` gave a melting point of 140 °C. In the case of `COc1ccc(-c2nc(Cn3ccnc3)cs2)cc1`, the melting point is reported as 89 to 90 °C. Compound `Cc1nc(C)n(-c2cc(C)c3[nH]c(=O)ccc3c2)c1[N+](=O)[O-]` has a melting point of 244 to 247 °C. `Cc1cc(Nc2ccccc2)nc(N)n1` gave a melting point of 179 to 180 °C. `CCOC(=O)C(Cc1ccc(C(C(N)=O)C(C)c2ccccc2N2CCCCC2)cc1)C(=O)OCC` (centres undefined) gave a melting point of 123 to 125 °C. Compound `CS(=O)(=O)n1ccc2c1CC(c1ccccc1)CC2=O` (centres undefined) has a melting point of 172 to 173 °C. With `CCCn1c(=O)c(C(=O)OCC)c(N2CCN(C(=O)c3cccs3)CC2)c2cccnc21` the melting point was 92 to 96 °C. Work on `O=C(O)c1cc(C(=O)O)c2cc(Cc3ccc(F)cc3)cnc2c1O` yielded a melting point of 279 to 282 °C. `COc1ccccc1CC(=O)N1CCCc2ncc3ccccc3c21` gave a melting point of 108 to 111 °C. Work on `O=Cc1cccc(OCc2nc(-c3ccccc3)c(-c3ccccc3)o2)c1` yielded a melting point of 72 to 75 °C. `CCOC(=O)Cc1cc(CC)c(C(=O)c2ccc(Cl)cc2)n1C` gave a melting point of 73 to 75 °C. With `O=C1Cc2cc(-n3cccc3)ccc2C(=O)N1` the melting point was 212 to 213 °C. Work on `Cc1ccc2c(c1)CCO2` yielded a melting point of 45 to 48 °C. For `COCCNC(=O)c1cc(F)cc(-c2cccc3cc(Cc4cccc(C(F)(F)F)c4)sc23)c1`, the melting point was 103 to 104 °C. `O=c1c2cc(OCc3ccccc3)ccc2[nH]c2c([N+](=O)[O-])cc([N+](=O)[O-])c(Cl)c12` gave a melting point of 217 to 220 °C. `CCOC(=O)Cn1nnnc1S(=O)(=O)Cc1ccccc1` gave a melting point of 105 to 107 °C. For `O=C(O)CSCc1nccc2ccccc12`, the melting point was 186 to 187 °C. Compound `CCSc1ccc(NC=O)cc1S(N)(=O)=O` has a melting point of 127 °C. In the case of `CN(C)CCNC(=O)N1CCN(c2ccc(F)cc2)CC1`, the melting point is reported as 99 to 101 °C. Compound `COc1ccc(N=Nc2cc(OC)cc(C(C)(C)C)c2O)cc1` has a melting point of 125 to 127 °C. `OCCSC/C=C/c1ccc(Cc2cccnc2)cc1` gave a melting point of 73 to 74 °C. `Oc1ccc(-c2cc3ccccc3[nH]2)cc1` showed a melting point of 224 to 229 °C.
